Read-outs that look alike come from different tables or passages of the source.
Experiments:
hNAMPT protein = hNAMPT protein (Homo sapiens (Human), UniProt P43490); test: NAMPT enzyme assay (TR-FRET/HTRF, BodiPY ligand, anti 6His-Tb); assay type: binding; details: for inhibition at 1 µM: read-out: Percent Inhibition; for IC50: read-out: IC50
In short: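 Compound or DMSO was incubated for 1 h at room temperature, protected from light, with BodiPY ligand and hNAMPT labelled by terbium anti-6His antibody. The 520 nm to 486 nm emission ratio after 320 nm excitation gave inhibition versus vehicle, from which concentration-response curves yielded IC50.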

PC3 cells = test: PC3 growth inhibition (Cell-titer glo, 72 hours); assay type: cell-based; details: Homo sapiens, PC-3, PC3 cells, 72 hours, Cell-titer glo, read-out: Percent Inhibition (PC3 growth inhibition); for inhibition at 1.667 µM: compound concentration 1.667 μM; for inhibition at 1 µM: compound concentration 1 μM
In short: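 Compounds in AIM serum-free medium were applied for 72 h at 37 °C, 5% CO2 to PC3 cells plated overnight from RPMI1640 culture. Luminescence after 10 min CellTiter-Glo, normalised to DMSO, gave % viability at 1 μM or 1.667 μM, or GI50/LD50.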

[1] = NAMPT inhibition at compound concentration 1 μM
[2] = NAMPT inhibition, IC50 range class

hNAMPT protein, sequence (P43490 whole entry): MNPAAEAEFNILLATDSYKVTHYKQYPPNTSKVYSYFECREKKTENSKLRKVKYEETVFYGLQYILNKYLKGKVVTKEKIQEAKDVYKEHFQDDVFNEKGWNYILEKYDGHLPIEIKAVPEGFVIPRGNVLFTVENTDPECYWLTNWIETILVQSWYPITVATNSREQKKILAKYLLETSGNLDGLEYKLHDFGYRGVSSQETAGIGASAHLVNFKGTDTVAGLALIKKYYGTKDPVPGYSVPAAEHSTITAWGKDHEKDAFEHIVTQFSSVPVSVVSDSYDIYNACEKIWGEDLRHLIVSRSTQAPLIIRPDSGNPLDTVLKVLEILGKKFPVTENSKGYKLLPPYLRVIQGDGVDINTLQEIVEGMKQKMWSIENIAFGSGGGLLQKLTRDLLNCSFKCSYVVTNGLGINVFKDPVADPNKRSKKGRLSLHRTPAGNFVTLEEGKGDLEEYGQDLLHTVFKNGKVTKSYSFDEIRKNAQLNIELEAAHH

| Compound | inhibition at 1 µM (hNAMPT protein; [1]) | IC50 (hNAMPT protein; [2]) | inhibition at 1.667 µM (PC3 cells) | IC50 (hNAMPT protein; NAMPT IC50 range class) | inhibition at 1 µM (hNAMPT protein; compound concentration 1 μM) | inhibition at 1 µM (PC3 cells) | inhibition at 1 µM (hNAMPT protein) |
| --- | --- | --- | --- | --- | --- | --- | --- |
| COc1ccc(-c2nc3cc(C(=O)NCCCc4ncc[nH]4)ccc3nc2-c2ccc(F)cc2)cc1F [Compound I-470, 3-(3-fluoro-4-methoxyphenyl)-2-(4-fluorophenyl)-N-[3-(1H-imidazol-2-yl)propyl]quinoxaline-6-carboxamide] | 81% | 100 to 500 nM | 2% |  |  |  |  |
| O=C(NCCCc1ncc[nH]1)c1ccc2nc(OCc3ccoc3)c(-c3ccc(F)cc3)nc2c1 [Compound I-351, 3-(4-fluorophenyl)-2-(3-furylmethoxy)-N-[3-(1H-imidazol-2-yl)propyl]quinoxaline-6-carboxamide] |  |  | 3% | < 100 nM | 96% |  |  |
| O=C(NCCCn1ccnc1)c1ccc2nc(NCc3ccccc3)c(-c3ccccc3)nc2c1 [Compound I-62, 2-(benzylamino)-N-[3-(1H-imidazol-1-yl)propyl]-3-phenylquinoxaline-6-carboxamide] |  |  |  | 2000 to 10000 nM | 24% | -4% |  |
| O=C(NCCCn1ccnc1)c1ccc2nc(-c3ccccc3)c(N3CCCCCC3)nc2c1 [Compound I-265, 3-(azepan-1-yl)-N-[3-(1H-imidazol-1-yl)propyl]-2-phenylquinoxaline-6-carboxamide] |  |  |  | 2000 to 10000 nM | 17% | 11% |  |
| O=C(NCCCc1c[nH]cn1)c1ccc2nc(N3CCOCC3)c(-c3ccc(F)cc3)nc2c1 [Compound I-35, 3-(4-fluorophenyl)-N-[3-(1H-imidazol-4-yl)propyl]-2-(morpholin-4-yl)quinoxaline-6-carboxamide] |  |  | 2% | < 100 nM | 90% |  |  |
| O=C(NCCCn1ccnc1)c1ccc2nc(-c3ccncc3)c(-c3ccccc3)nc2c1 [Compound I-5, N-[3-(1H-imidazol-1-yl)propyl]-3-phenyl-2-(pyridin-4-yl)quinoxaline-6-carboxamide] |  |  |  | 500 to 1000 nM | 53% | -7% |  |
| O=C(NCCc1ccc2[nH]cnc2c1)c1ccc2nc(-c3ccc(F)cc3)c(-c3ccc(F)cc3)nc2c1 [Compound I-43, N-[2-(1H-benzimidazol-5-yl)ethyl]-2,3-bis(4-fluorophenyl)quinoxaline-6-carboxamide] |  |  |  | 2000 to 10000 nM | 23% | 16% |  |
| CC(C)Oc1nc2ccc(C(=O)NCCCc3ccc(N)nc3)cc2nc1-c1ccc(F)cc1 [Compound I-359, N-[3-(6-aminopyridin-3-yl)propyl]-3-(4-fluorophenyl)-2-isopropoxyquinoxaline-6-carboxamide] |  |  | 3% | 500 to 1000 nM | 46% |  |  |
| O=C(NCCCc1ncc[nH]1)c1ccc2nc(Cl)c(-c3ccc(Cl)cc3)nc2c1 [Compound I-50, 2-chloro-3-(4-chlorophenyl)-N-[3-(1H-imidazol-2-yl)propyl]quinoxaline-6-carboxamide] |  |  | 96% | < 100 nM | 87% |  |  |
| CC(=O)Nc1ccc(-c2nc3ccc(C(=O)NCCCn4ccnc4)cc3nc2-c2ccccc2)cc1 [Compound I-254, 2-(4-acetamidophenyl)-N-[3-(1H-iniidazol-1-yl)propyl]-3-phenylquinoxaline-6-carboxamide] |  |  |  | 100 to 500 nM | 84% | -8% |  |
| CC(C)Oc1nc2ccc(C(=O)NCc3ccc4nccn4c3)cc2nc1-c1ccc(F)c(F)c1 [Compound I-367, 3-(3,4-Difluorophenyl)-N-(imidazo[1,2-a]pyridin-6-ylmethyl)-2-isopropoxyquinoxaline-6-carboxamide] |  |  | 0% | 500 to 1000 nM | 50% |  |  |
| CC(C)Oc1nc2ccc(C(=O)NCc3ccc4nccn4c3)cc2nc1-c1ccc(F)cc1 [Compound I-452, 3-(4-Fluorophenyl)-N-(imidazo[1,2-a]pyridin-6-ylmethyl)-2-isopropoxyquinoxaline-6-carboxamide] | 75% | 100 to 500 nM | 3% |  |  |  |  |
| O=C(NCCCn1ccnc1)c1ccc2nc(N3CCC(N4CCCC4=O)CC3)c(-c3ccccc3)nc2c1 [Compound I-136, N-[3-(1H-imidazol-1-yl)propyl]-2-[4-(2-oxopyrrolidin-1-yl)piperidin-1-yl]-3-phenylquinoxaline-6-carboxamide] |  |  |  | 100 to 500 nM | 83% | -7% |  |
| N#Cc1cc(-c2nc3cc(C(=O)NCCCc4ncc[nH]4)ccc3nc2-c2ccc(F)cc2)ccc1Cl [Compound I-377, 3-(4-chloro-3-cyanophenyl)-2-(4-fluorophenyl)-N-[3-(1H-imidazol-2-yl)propyl]quinoxaline-6-carboxamide] |  |  | 2% | 100 to 500 nM | 85% |  |  |
| O=C(NCCCn1ccnc1)c1ccc2nc(N3CCC(C4CCNCC4)CC3)c(-c3ccccc3)nc2c1 [Compound I-271, 2-(4,4′-Bipiperidin-1-yl)-N-[3-(1H-imidazol-1-yl)propyl]-3-phenylquinoxaline-6-carboxamide] |  |  |  | < 100 nM |  | -2% | 102% |
| O=C(NCCCc1ncc[nH]1)c1ccc2nc(-n3cnc4ccccc43)c(-c3ccc(F)cc3)nc2c1 [Compound I-453, 2-(1H-benzimidazol-1-yl)-3-(4-fluorophenyl)-N-[3-(1H-imidazol-2-yl)propyl]quinoxaline-6-carboxamide] | 88% | 100 to 500 nM | 3% |  |  |  |  |
| Cc1cnn(-c2nc3ccc(C(=O)NCCCc4ncc[nH]4)cc3nc2-c2ccc(F)cc2)c1 [Compound I-503, 3-(4-fluorophenyl)-N-[3-(1H-imidazol-2-yl)propyl]-2-(4-methyl-1H-pyrazol-1-yl)quinoxaline-6-carboxamide] | 84% | 100 to 500 nM | 3% |  |  |  |  |
| O=C(NCCCc1ncc[nH]1)c1ccc2nc(OCc3cn[nH]c3)c(-c3ccc(F)cc3)nc2c1 [Compound I-347, 3-(4-fluorophenyl)-N-[3-(1H-imidazol-2-yl)propyl]-2-(1H-pyrazol-4-ylmethoxy)quinoxaline-6-carboxamide] |  |  | 33% | < 100 nM | 97% |  |  |
| O=C(NCCCc1ncc[nH]1)c1ccc2nc(N3CCC(N4CCOCC4)CC3)c(-c3ccccc3)nc2c1 [Compound I-18, N-[3-(1H-imidazol-2-yl)propyl]-2-[4-(morpholin-4-yl)piperidin-1-yl]-3-phenylquinoxaline-6-carboxamide] |  |  | 2% | < 100 nM | 100% |  |  |
| Cn1cncc1CCNC(=O)c1ccc2nc(N3CCOCC3)c(-c3ccc(F)cc3)nc2c1 [Compound I-177, 3-(4-fluorophenyl)-N-[2-(1-methyl-1H-imidazol-5-yl)ethyl]-2-(morpholin-4-yl)quinoxaline-6-carboxamide] |  |  | 2% | 100 to 500 nM | 77% |  |  |
| Cc1ccc(-c2nc3cc(C(=O)NCCCc4ncc[nH]4)ccc3nc2-c2ccc(F)cc2)cc1C [Compound I-433, 3-(3,4-dimethylphenyl)-2-(4-fluorophenyl)-N-[3-(1H-imidazol-2-yl)propyl]quinoxaline-6-carboxamide] | 79% | 100 to 500 nM | 3% |  |  |  |  |
